From US9539303B2, “Treatment of Ras-expressing tumors” (Celgene Corporation, priority 2006, dated 2017)
Values joined by “and” are separate entries in the source; they are usually repeats but may differ in a detail not shown here. Equal values may be shown once. “Also recorded” adds a separate entry of the source.

Experiments:
[1] = system: Panc-1 human pancreas tumors (oncogenic K-ras); assay: Panc-1 mouse xenograft model, tumor growth (Example 1); assay type: in vivo, female nude mice; details: Panc-1 xenograft; N=9 mice per group
Description: In this study, female nude mice were implanted subcutaneously (SC) by trocar with Panc-1 tumor fragments harvested from SC growing tumors in nude mice hosts. […] The day of treatment initiation was specified as Day 1. Vehicle control and FK228 were administered intravenously on a […] schedule (Days 1, 5, and 9). Gemcitabine was administered by an intraperitoneal injection on a […] schedule (Days 1, 4, 7, 10). Tumors were measured by Vernier calipers twice weekly.

c-Myc = assay: Tissue biomarker immunoblotting of PANC-1 xenograft tumors: c-Myc; assay type: in vivo; details: PANC-1 tumors at study completion; FK228 5 mg/kg Q4Dx3, gemcitabine 80 mg/kg Q3Dx4, or both; actin-normalized vs control
Description: (§1) Specimen Collection: […] Tumor xenograft tissue and serum specimens were obtained from in vivo studies performed by the Preclinical Research Laboratory at the completion of the experiments. […] Serum was obtained from whole blood and stored frozen at -70° C. Tissue Biomarkers: Tumor levels of acetylated histone-4, histone-4, […] were quantified by immunoblotting as described. Briefly, frozen tissue was pulverized under liquid nitrogen and homogenized in hypotonic lysis buffer. Small aliquots of the extracts were used for analysis of protein concentration by micro-BCA assay with bovine serum albumin as a protein standard. An equal amount of extracts containing about 20-50 μg protein was electrophoresed in SDS polyacrylamide gels. Proteins were transferred to ImmunoBlot PVDF membrane and were probed with appropriate primary and secondary antibodies. The chemiluminescence signal was captured by autoradiography, quantified by densitometry and expressed as a ratio of actin in each sample lane. For each biomarker, means and standard errors were calculated in each treatment group. […] Following quantitative analysis of biomarker levels in each sample, the results were normalized for b-actin and expressed as percentages of untreated controls. […]

acetylated histone 3 = assay: Tissue biomarker immunoblotting of PANC-1 xenograft tumors: acetylated histone 3; assay type: in vivo; details: PANC-1 tumors at study completion; FK228 5 mg/kg Q4Dx3, gemcitabine 80 mg/kg Q3Dx4, or both
Description: as §1

acetylated histone 4 = assay: Tissue biomarker immunoblotting of PANC-1 xenograft tumors: acetylated histone 4; assay type: in vivo; details: PANC-1 tumors at study completion; FK228 5 mg/kg Q4Dx3, gemcitabine 80 mg/kg Q3Dx4, or both
Description: as §1

p21^waf = assay: Tissue biomarker immunoblotting of PANC-1 xenograft tumors: p21waf; assay type: in vivo; details: PANC-1 tumors at study completion; FK228 5 mg/kg Q4Dx3, gemcitabine 80 mg/kg Q3Dx4, or both
Description: as §1

[2] = system: PANC-1 human pancreatic tumor xenograft; assay: PANC-1 human pancreatic tumor xenograft tumor growth inhibition study (Example 3); assay type: in vivo, female nude mice (nu/nu); details: PANC-1 study
Source text: (§2) (Madison, Wis.). […] Tumor measurements were converted to cubic millimeter tumor volume using the formula^(5): […] TGI values for each treatment group are reported at study completion; these calculations are based on the final study day. […] Individual mice lacking palpable tumors were classified as undergoing complete regression (CR). Animals experiencing partial or complete tumor regressions were censored from TGI calculations. However, data from these animals was included in statistical analysis calculations. In addition, weight data from these animals was included in daily and final group calculations. Tumor Necrosis-Degree of tumor necrosis was rated at each tumor measurement using the following arbitrary index: […]

[3] = Animal weight and drug toxicity, PANC-1 study
Source text: (§3) Model Information—Female nude mice (nu/nu) between 5 and 6 weeks of age weighing approximately 20 grams were obtained from Harlan, Inc. (Madison, Wis.). PANC-1, obtained from the ATCC, is a pancreas tumor cell line originating from a person^(1-2). BxPC-3, obtained from the American Type Culture Collection (ATCC), is a pancreas tumor cell line originating from a person^(3-4). PANC-1 Study: Animals were implanted subcutaneously (SC) by trocar with fragments of PANC-1 harvested from SC growing tumors in nude mice hosts. When tumors grew to approximately 135 cubic millimeters (mm^3) in size (17 days following implantation, animals were pair-matched by tumor size into treatment and control groups; each treatment group contained nine mice. BxPC-3 Study: Animals were implanted subcutaneously (SC) by trocar with fragments of BxPC-3 harvested from SC growing tumors in nude mice hosts. When tumors grew to approximately 85 cubic millimeters (mm^3) in size (19 days following implantation), animals were pair-matched by tumor size into treatment and control groups; each treatment group contained nine mice. Animals in both studies were ear-tagged and followed individually throughout the experiment.
(§4) Study Design and Dosing—Initial doses were administered on Day 1 following pair-matching; both experiments were carried out as tumor growth inhibition (TGI) studies. Animals were dosed intravenously (IV) via tail vein with FK228 once every four days for three treatments (Q4Dx3) or by intraperitoneal (IP) injection with gemcitabine once every three days for four treatments (Q3Dx4), either alone or in combination, at the doses listed below (Table 1). To serve as a negative control, FK228 vehicle (2% ethanol, 8% propylene glycol, 90% 0.9% saline) was injected on a Q4Dx3 schedule.
(§5) Animal Weights—Individual and group mean weights±SD and percent weight change through Day 25 (PANC-1) or Day 29 (BxPC-3) were recorded twice weekly until study completion beginning Day 1. Final group mean weights±SD and group nadir values are reported; weight data from individual animals experiencing technical or drug-related deaths was censored from final group calculations.
(§6) Moribundity/Mortality—Animals were observed twice weekly for general moribundity and daily for mortality. Animal deaths were assessed as drug-related or technical based on factors including gross observation and weight loss; reported animal death information includes type, number, and day of death for each group.

[4] = system: BxPC-3 human pancreatic tumor xenograft; assay: BxPC-3 human pancreatic tumor xenograft tumor growth inhibition study (Example 3); assay type: in vivo, female nude mice (nu/nu); details: BxPC-3 study; for % TGI: Day 29
Source text: as §2

[5] = Animal weight and drug toxicity, BxPC-3 study
Source text: as §3, §4, §5, §6

[6] = at the evaluated doses and schedules
[7] = Day 25, Gemcitabine 40 mg/kg IP Q3Dx4
[8] = Day 25, Gemcitabine 80 mg/kg IP Q3Dx4
[9] = Day 29, Gemcitabine 40 mg/kg IP Q3Dx4
[10] = Day 29, Gemcitabine 80 mg/kg IP Q3Dx4

SMILES: Nc1ccn([C@@H]2O[C@H](CO)[C@@H](O)C2(F)F)c(=O)n1 [Gemcitabine, gemcitabine]
- tumor regression [1]: no regression
- extent of inhibition of c-Myc expression (c-Myc): 50%
- acetylation of histone 3 (acetylated histone 3): significantly inhibited
- levels of acetylated histone 4 vs control (acetylated histone 4): on the control level
- p21^waf expression (p21^waf): downregulated; also recorded: down-regulated
- #PR/CR ([2]; Gemcitabine 40 mg/kg IP Q3Dx4): 1/9 and 1/0
- Activity according to NCI standards ([2]; Gemcitabine 40 mg/kg IP Q3Dx4): inactive
- Tumor necrosis ([2]; Gemcitabine 40 mg/kg IP Q3Dx4): 1/9 animals reported mild tumor necrosis and 4/9 reported moderate necrosis
- #PR/CR ([2]; Gemcitabine 80 mg/kg IP Q3Dx4): 0/9 and 0/0
- % TR ([2]; Gemcitabine 80 mg/kg IP Q3Dx4): 0%
- Activity according to NCI standards ([2]; Gemcitabine 80 mg/kg IP Q3Dx4): inactive
- Tumor necrosis ([2]; Gemcitabine 80 mg/kg IP Q3Dx4): 1/9 animals reported slight tumor necrosis, 2/9 reported mild tumor necrosis, and 1/9 reported moderate necrosis
- calculated TGI values [2, 6]: less than 58%
- Final weight data % change [3, 7]: +7%
- Final weight data mean ± SD [3, 7]: 24±1 G
- Final weight data % change [3, 8]: +12%
- Final weight data mean ± SD [3, 8]: 26±3 G
- Drug deaths total ([3]; Gemcitabine 40 mg/kg IP Q3Dx4): 0/9 and 0
- Weight nadir % change ([3]; Gemcitabine 40 mg/kg IP Q3Dx4): −2%
- Weight nadir day ([3]; Gemcitabine 40 mg/kg IP Q3Dx4): 11
- Drug deaths total ([3]; Gemcitabine 80 mg/kg IP Q3Dx4): 0/9 and 0
- Weight nadir % change ([3]; Gemcitabine 80 mg/kg IP Q3Dx4): −3%
- Weight nadir day ([3]; Gemcitabine 80 mg/kg IP Q3Dx4): 11
- % TGI ([4]; Gemcitabine 40 mg/kg IP Q3Dx4): 20%
- % TGI ([4]; Gemcitabine 80 mg/kg IP Q3Dx4): 9%
- #PR/CR ([4]; Gemcitabine 40 mg/kg IP Q3Dx4): 0/9 and 0/0
- Activity according to NCI standards ([4]; Gemcitabine 40 mg/kg IP Q3Dx4): inactive
- Tumor necrosis ([4]; Gemcitabine 40 mg/kg IP Q3Dx4): 1/9 animals reported severe tumor necrosis
- #PR/CR ([4]; Gemcitabine 80 mg/kg IP Q3Dx4): 0/9 and 0/0
- Activity according to NCI standards ([4]; Gemcitabine 80 mg/kg IP Q3Dx4): inactive
- Tumor necrosis ([4]; Gemcitabine 80 mg/kg IP Q3Dx4): 1/9 animals reported mild tumor necrosis
- calculated TGI values [4, 6]: less than 58%
- Final weight data % change [5, 9]: +9%
- Final weight data mean ± SD [5, 9]: 25±3 G
- Final weight data % change [5, 10]: +1%
- Final weight data mean ± SD [5, 10]: 22±4 G
- Drug deaths total ([5]; Gemcitabine 40 mg/kg IP Q3Dx4): 0/9 and 0
- Weight nadir % change ([5]; Gemcitabine 40 mg/kg IP Q3Dx4): No weight loss
- Drug deaths total ([5]; Gemcitabine 80 mg/kg IP Q3Dx4): 0/9 and 0
- Weight nadir % change ([5]; Gemcitabine 80 mg/kg IP Q3Dx4): −9%
- Weight nadir day ([5]; Gemcitabine 80 mg/kg IP Q3Dx4): 11
